For one test, the system named is H. pylori isolates. Description: MIC by agar dilution against 200 H. pylori isolates (Taiwan). The test is classed as cell-based, Helicobacter pylori. How it is done:
MICs were determined using the agar dilution methods recommended by the Clinical and Laboratory Standards Institute (CLSI-M100-S18).

In test [1] the test system is Methicillin-resistant Staphylococcus aureus (MRSA) isolates. Put plainly: MIC by broth microdilution (CLSI) against CAN-ICU MRSA isolates. The test is classed as cell-based. Particulars: Staphylococcus aureus. The text has this: MRSA isolates (n=193) were obtained as part of the Canadian National Intensive Care Unit (CAN-ICU) Study. 19 medical centers from all regions of Canada with active ICUs participated in the CAN-ICU study included. They were requested to only obtain “clinically significant” specimens from patients with a presumed infectious disease. Surveillance swabs, eye, ear, nose and throat swabs were excluded. Anaerobic organisms and fungal organisms were also excluded.
From September 2005-June 2006 (inclusive), each center collected a maximum of 300 consecutive pathogens isolated from blood, urine, tissue/wound, and respiratory specimens (one pathogen per cultured site per patient) of ICU patients. These isolates were shipped to the reference laboratory (Health Sciences Centre, Winnipeg, Canada) on Amies charcoal swabs, subcultured in appropriate media, and stocked in skim milk at −80° C.
All isolates underwent mecA PCR, as well as molecular characterization (including PVL analysis and fingerprinting), as previously described, to assess whether they were community-associated or healthcare-associated (Christianson et al., J Clin Microbiol. 2007, 45 (6): 1904-11; Mulvey et al., J Clin. Microbiol. 2001, 39(10): 3481-5; Mulvey et al., Emerg Infect Dis. 2005,11(6): 844-50; Oliveira et al., Antimicrob Agents Chemother. 2002, 46(7): 2155-61). The isolates were also subtyped using pulsed-field gel electrophoresis (PFGE) following the Canadian standardized protocol as previously described (Mulvey et al., J Clin Microbiol. 2001, 39(10): 3481-5). Their PFGE fingerprints thus obtained were analyzed with BioNumerics v3.5 (Applied Maths St. Marten-Latem, Belgium) using a position tolerance of 1.0 and an optimization of 1.0. Strain relatedness was determined as previously described (Tenover et al., 1995). The fingerprints of the isolates were compared to the national MRSA fingerprint database and were grouped into one of 10 Canadian epidemic MRSA (CMRSA-1, CMRSA-2, etc) as previously described (Mulvey et al., Emerg Infect Dis. 2005,11(6):844-50).
Compound 1 and other antibiotics were tested for their inhibitory activity against the MRSA isolates using the broth microdilution guidelines as stipulated by the Clinical and Laboratory Standards Institute.
A general note: Broth dilution looks for growth in wells or tubes with falling amounts of substance.

The test system of test [2] is Staphylococcus aureus strains (MRSA, hVISA, VISA, VRSA, quinolone-resistant MRSA). Put plainly: MIC by agar dilution against Staphylococcal strains (MRSA, hVISA, VISA, VRSA, quinolone-resistant MRSA). The test is classed as cell-based. How it is done: Compound 1 was tested for its inhibitory effect against 26 Methicillin-resistant Staphylococcus aureus (MRSA) strains, 2 hetero-Vancomycin intermediate Staphylococcus aureus (hVISA) strains, 24 Vancomycin-intermediate Staphylococcus aureus (VISA) strains, 5 Vancomycin-resistant Staphylococcus aureus (VRSA) strains, and 31 quinolone-resistant Vancomycin-susceptibale MRSA strains with defined mutations in QRDR. These mutations were determined by sequencing analysis of the QRDR (gyrA, gyrB, grlA, and grlB). Efflux testing was performed by the reserpine method (Brenwald, et al., Antimicrob. Agents Chemother. 1998, 42: 2032-2035).

Setting [3] is: Helicobacter pylori, 200 isolates of H. pylori.
The mark [4] stands for this setting: Staphylococcus aureus, MRSA (26).
[5] abbreviates: Staphylococcus aureus, Quinolone-resistant MRSA (31).
Where [6] appears, read: Staphylococcus aureus, hVISA(2) + VISA (24) + VRSA (5).
Where [7] appears, read: hVISA(2) + VISA (24) + VRSA (5).
[8] abbreviates: MRSA (n = 193), read-out: MIC50.
Setting [9] is: MRSA (n = 193), read-out: MIC90.
Setting [10] is: MRSA (n = 193), read-out: MIC Range Max.
The mark [11] stands for this setting: MRSA (n = 193), read-out: MIC Range Min.

Values after ≈ are worked out from the molar mass of the structure shown. Read-outs that look alike come from different tables or passages of the source.

The record followed here is patent US8211909B2, “Treatment of antibiotic-resistant bacteria infection” (TaiGen Biotechnology Co., Ltd., priority 2008, dated 2012).

In the test on H. pylori isolates (setting [3]), `CO/N=C1\CN(c2nc3c(cc2F)c(=O)c(C(=O)O)cn3C2CC2)CC1CN` (stereo not shown) [Gemifloxacin] came in with an MIC50 of 60 µg/mL (≈ 154 µM) and an MIC90 of 120 µg/mL (≈ 308 µM).
For `CN(C)c1cc(NC(=O)CNC(C)(C)C)c(O)c2c1C[C@H]1C[C@H]3[C@H](N(C)C)C(O)=C(C(N)=O)C(=O)[C@@]3(O)C(O)=C1C2=O` [Tigecycline], the MIC50 in test [1] (MRSA) came out at 0.25 µg/mL (≈ 0.427 µM); in test [1] (MRSA / USA100), 0.25 µg/mL (≈ 0.427 µM); in test [1] (MRSA / USA200) it was 0.5 µg/mL (≈ 0.854 µM); in test [1] (MRSA / USA300), 0.25 µg/mL (≈ 0.427 µM); in test [1] (MRSA / USA400), 0.25 µg/mL (≈ 0.427 µM); in test [1] (MRSA / USA600), 0.25 µg/mL (≈ 0.427 µM). For the same compound, the MIC50 in test [2] (setting [4]) turned out to be 0.25 µg/mL (≈ 0.427 µM); in test [2] (setting [5]), 0.12 µg/mL (≈ 0.205 µM); in test [2] (setting [6]), 0.25 µg/mL. In addition, the MIC90 is 0.5 µg/mL (≈ 0.854 µM) in test [1] (MRSA); 0.25 µg/mL (≈ 0.427 µM) in test [1] (MRSA / USA100); 0.5 µg/mL (≈ 0.854 µM) in test [1] (MRSA / USA200); 0.5 µg/mL (≈ 0.854 µM) in test [1] (MRSA / USA300); 0.25 µg/mL (≈ 0.427 µM) in test [1] (MRSA / USA400); 0.5 µg/mL (≈ 0.854 µM) in test [1] (MRSA / USA600). The MIC90 in test [2] (setting [4]) is 0.5 µg/mL (≈ 0.854 µM); in test [2] (setting [5]), 0.25 µg/mL (≈ 0.427 µM); in test [2] (setting [6]) it was 0.5 µg/mL. In addition, the minimal inhibitory concentration (MIC) was 0.5 µg/mL (≈ 0.854 µM) in test [1] (MRSA, read-out: MIC Range Max); 0.12 µg/mL (≈ 0.205 µM) in test [1] (MRSA, read-out: MIC Range Min); 0.12 to 0.5 µg/mL (≈ 0.205 to 0.854 µM) in test [2] (Staphylococcus aureus, read-out: MIC Range, MRSA (26)); 0.12 to 0.5 µg/mL (≈ 0.205 to 0.854 µM) in test [2] (Staphylococcus aureus, read-out: MIC Range, Quinolone-resistant MRSA (31)); 0.06 to 0.5 µg/mL in test [2] (Staphylococcus aureus, read-out: MIC Range, hVISA(2) + VISA (24) + VRSA (5)).
Turning to Teicoplanin, the MIC50 in test [2] (MRSA (26)) came out at 0.5 µg/mL; in test [2] (Quinolone-resistant MRSA (31)) it was 0.5 µg/mL; in test [2] (setting [7]), 8 µg/mL. Moreover, the figures for the MIC90 in test [2] (MRSA (26)), in test [2] (Quinolone-resistant MRSA (31)) and in test [2] (setting [7]) were 1 µg/mL, 1 µg/mL and 16 µg/mL, respectively. In addition, the “MIC Range” value is 0.5 to 1 µg/mL in test [2] (MRSA (26)), 0.25 to 2 µg/mL in test [2] (Quinolone-resistant MRSA (31)) and 1 to 32 µg/mL in test [2] (setting [7]).
For `CO/N=C(\C(=O)N[C@@H]1C(=O)N2C(C(=O)O)=C(CSc3nc(=O)c(=O)[nH]n3C)CS[C@H]12)c1csc(N)n1` [Ceftriaxone], the MIC50 in test [1] (setting [8]) was more than 64 µg/mL. Further, the MIC90 in test [1] (setting [9]) was more than 64 µg/mL. Moreover, the MIC in test [1] (setting [10]) is more than 64 µg/mL; in test [1] (setting [11]), 8 µg/mL (≈ 14.4 µM).
In the case of `CC1(C)S[C@@H]2[C@H](NC(=O)[C@H](N)c3ccc(O)cc3)C(=O)N2[C@H]1C(=O)O` [amoxicillin], the “share of isolates resistant” value in the test with H. pylori isolates (200 H. pylori isolates, resistance: amoxicillin MICs≧0.5, clarithromycin ≧1, metronidazole ≧8, ciprofloxacin ≧1, levofloxacin ≧1 μg/mL) turned out to be 2%.
Consider `Cc1nnc(SCC2=C(C(=O)O)N3C(=O)[C@@H](NC(=O)Cn4cnnn4)[C@H]3SC2)s1` [Cefazolin], for which the MIC50 in test [1] (setting [8]) worked out at 128 µg/mL (≈ 282 µM). In addition, the MIC90 in test [1] (setting [9]) was more than 128 µg/mL. Further, the figures for the MIC in test [1] (setting [10]) and in test [1] (setting [11]) were more than 128 µg/mL and 2 µg/mL (≈ 4.4 µM), respectively.

The term MIC50 denotes the lowest concentration that inhibits either 50% of growth or 50% of the strains tested, depending on the study. A word on the MIC90: it is an inhibitory concentration at the 90% level, which refers to growth in some studies and to a panel of isolates in others. For orientation: MIC means the smallest concentration in the dilution series that meets the test's criterion for growth inhibition.
